# Results from publication PMC3030572, “Antamanide, a Derivative of Amanita phalloides, Is a Novel Inhibitor of the Mitochondrial Permeability Transition Pore” (PLoS ONE, 2011).
# Entries after “also recorded” stand apart in the source; their conditions may differ.
# What was measured:
# [1] = system: mitochondrial permeability transition pore (PTP), CyP-D knock-out fibroblasts; assay: CRC assay, mitochondria isolated from CyP-D knock-out mouse fibroblasts; format: biochemical; details: 25°C, Figure 3B
# Protocol: Figure 3 Effect of AA on respiration and PTP opening in mitochondria of wild-type or CyP-D knock-out mouse fibroblasts. A, upper part: Western blot analysis assessing CyP-D expression in fibroblasts obtained from either wild-type or CyP-D knock-out mice; HKII was utilized to verify protein load; lower part: representative experiment showing oxygen consumption as assessed by polarography (see Methods) in mitochondria isolated from wild-type fibroblasts in the absence (a) or presence (b) of 8 µM AA. Experiments were started by adding 0.6 mg of mitochondria (Mito), followed by 100 µM ADP and 50 µM 2,4-dinitrophenol (DNP) (arrows). Each experiment was repeated at least three times. Oxygen consumption is reported as percentage of initial value on the y axis. B, bar graphs report the ratio between the CRC detected in the presence (CRC) and absence (CRC0) of increasing concentrations of AA, in mitochondria from either wild-type fibroblasts (left) or CyP-D knock-out fibroblasts (right). […] Results are mean±SD of at least 4 experiments.
# Mitochondria were isolated either from livers of C57BL/6 mice through sequential centrifugations, or from cells, as described. To obtain mitochondria, cells were disrupted with a glass-Teflon potter in a buffer composed by 250 mM sucrose, 10 mM Tris-HCl, 0.1 mM EGTA-Tris, pH 7.4. […]
# (§1) PTP opening was detected as a fluorescence increase.
# [2] = system: organic anion-transporting polypeptide family; details: also our unpublished data; ref [8]; cited from earlier work
# From the text: (§2) Antamanide (AA) is a monocyclic, homodetic decapeptide isolated from the poisonous mushroom Amanita phalloides. […] Little is known about the biochemical mechanisms underlying these diverse bioactivities. […] The CyP chaperone activity, i.e. the isomerization to the cis form of the peptidyl bonds preceding each proline, is involved in folding and association processes required for proteins to perform thei ...
# mouse liver mitochondria = assay: mitochondrial respiration assay, mouse liver mitochondria; format: biochemical; details: polarography, Clark electrode, 25°C; data not shown
# Protocol: Mitochondrial oxygen consumption was measured polarographically at 25°C with a Clark oxygen electrode (Yellow Springs Instruments, OH, USA). Mitochondria (0.6 mg per experimental point) were incubated in a solution of 130 mM KCl, 10 mM Tris-Mops, 1 mM Pi-Tris, 20 mM EGTA-Tris and 2 µM rotenone/5 mM succinate to assay basal respiration (state 4). ADP (200 µM) was subsequently added to measure state 3 respiration, followed by the uncoupling agent dinitrophenol (100 µM) to assess the maximal respiration rate.
# animal model = details: ref [4]; cited from earlier work
# From the text: (§3) Antamanide (AA) is a monocyclic, homodetic decapeptide isolated from the poisonous mushroom Amanita phalloides. […] Little is known about the biochemical mechanisms underlying these diverse bioactivities. To explain its antitoxic activity, ...
# [3] = system: hepatocyte membrane transporter for the phallotoxin phalloidin and for the amatoxin alpha-amanitin; details: proposed; ref [6], [7]; cited from earlier work
# From the text: as §3
# [4] = system: IL-2-induced multisystem organ edema; details: ref [5]; cited from earlier work
# From the text: as §3
# tumour cell models = details: in vitro; ref [3]; cited from earlier work
# From the text: as §3
# immunosuppressant = system: immunosuppressant; design: method as in PMID 1494502, PMID 8441706; details: ref [10], [11]; cited from earlier work
# From the text: as §2
# [5] = system: mitochondrial permeability transition pore (PTP); format: biochemical, mouse
# Protocol: A, chemical structure of AA. B, D, Ca^2+ retention capacity (CRC) either in phosphate (Pi) buffer (B) or in arsenate (Asi) buffer (D). Calcium Green-5N fluorescence is reported as arbitrary units on the y axis.
# Mitochondria were isolated either from livers of C57BL/6 mice through sequential centrifugations, or from cells, as described. To obtain mitochondria, cells were disrupted with a glass-Teflon potter in a buffer composed by 250 mM sucrose, 10 mM Tris-HCl, 0.1 mM EGTA-Tris, pH 7.4. Nuclei and plasma membrane fractions were separated by a first mild centrifugation (700× g, 10 min), and mitochondria were then spinned down at a higher speed (7000× g, 10 min). All procedures were carried out at 0–4°C.
# as §1
# HeLa cells [6] = format: cell-based, human; details: 30 min preincubation, TMRM, n = 4
# Protocol: Figure 5 Effect of AA on mitochondrial potential of HeLa cells. A, bar graphs report the ratio between the CRC detected in the presence (CRC) and absence (CRC0) of increasing concentrations of AA in mitochondria from HeLa cells. […] B,C cytofluorimetric analysis of mitochondrial depolarization. HeLa cells were incubated with the TMRM probe and treated for 1 hour with the reported concentrations of either clotrimazole (CTM) or TAT-HK peptide. An unrelated TAT-linked peptide (TAT-Ctr) is used as a negative control. […] Bar graphs in B display the percentage of cells with depolarized mitochondria (mean±SD, n = 4). […] Histograms in C report a representative experiment, where cells with polarized and depolarized mitochondria are indicated in red and grey, respectively.
# (§4) Flow cytometry recordings were performed as described, [51], [52]. Briefly, at the end of the incubation, cells were resuspended in 135 mM NaCl, 10 mM HEPES, 5 mM CaCl2 and incubated at 37°C in either TMRM (10 nM) to detect mitochondrial depolarization (reduced TMRM staining), or in FITC-conjugated Annexin-V and propidium iodide (PI, 1 µg/ml), to detect phosphatidylserine exposure on the cell surface (increased FITC-conjugated Annexin-V staining) and loss of plasma membrane integrity (PI permeability and staining). […] Samples were analyzed on a FACSCanto II flow cytometer (Becton Dickinson, San Diego, CA, USA). Data acquisition and analysis were performed using FACSDiva software.
# HeLa cells [7] = format: cell-based, human; details: 30 min preincubation, then TAT-HK 1 hour
# Protocol: A, cytofluorimetric analysis of cell death induction in HeLa cells treated for 1 hour with TAT-HK. […] TAT-Ctr was used as a negative control. Cells were double stained with Annexin V-FITC and propidium iodide (PI), to respectively evaluate apoptosis induction as phosphatidylserine exposure on the cell surface (increased Annexin V-FITC staining) and cell death as plasma membrane permeabilization (increased PI staining). We considered Annexin V^+ as early/intermediate apoptotic cells; PI^+ as necrotic cells; double stained as late apoptotic cells. Bar graphs display the percentage of each cell population (mean±SD, n = 4; double positive cells are added to both bars). […] B, histograms reporting a representative experiment, where viable cells are indicated in red, PI^+- and Annexin V^+-cells are indicated in grey and green, respectively.
# as §4
substance,measurement,setting,value
Antamanide [AA],PTP inhibition (CRC),[1],totally ineffective
same,inhibition of cell uptake of phalloidin,[2],block cell uptake of the phallotoxin phalloidin
same,oxygen consumption,mouse liver mitochondria,unaffected
same,antitumor action,animal model,displays an antitumor action in an animal model
same,antagonism of hepatocyte transporter for phalloidin and alpha-amanitin,[3],competitively antagonizes a hepatocyte membrane transporter
same,attenuation of edema,[4],attenuates IL-2-induced multisystem organ edema
same,tumor cell growth inhibition,tumour cell models,inhibits tumor cell growth in vitro
same,immunosuppressant activity,immunosuppressant,acts as an immunosuppressant
same,CRC/CRC0: difference from CRC of untreated mitochondria,"[5]; AA at various concentrations, Figure 1C and D, mean±SD of at least 4 experiments, Student's t test",significant difference (Student's t test analysis; *: p<0.01)
same,concentration at which the effect reaches a plateau (concentration-response CRC),"[5]; Figure 2B, mean±SD of at least 4 experiments",about 20 µM
same,PTP inhibition in arsenate,"[5]; arsenate (Asi) buffer, Figure 1B, D",abrogated in the presence of arsenate; also recorded: act as pore inhibitors only in Pi buffer
same,additivity of PTP inhibition with CsA,"[5]; combination with CsA, Figure 1C",not additive with that of CsA
same,additivity of PTP inhibition with Ub0,"[5]; combination with Ub0, Figure 1C, t test #: p<0.01",AA did increase inhibition by Ub0; also recorded: additive with that of Ub0
same,PTP inhibition (CRC),"[5]; phosphate-containing medium, Calcium Green-5N, 25°C","AA inhibited pore opening, similar to the PTP inhibitors CsA or Ubiquinone 0"
same,reversal of CTM-induced mitochondrial depolarization,HeLa cells [6]; then CTM 1 hour,significantly decreased the percentage of cells with mitochondria depolarized by CTM (Student's t test analysis; *: p<0.01); also recorded: similarly reverted
same,reversal of TAT-HK-induced mitochondrial depolarization,HeLa cells [6]; then TAT-HK 1 hour,similarly reverted
same,effect on TAT-HK-induced necrotic response,HeLa cells [7],virtually abolished the necrotic response
same,residual apoptosis after TAT-HK,HeLa cells [7],a small fraction of cells undergoing apoptosis was still detectable
same,protection from TAT-HK induced death,"HeLa cells [7]; n = 4, Student's t test *: p<0.01",significantly protected from TAT-HK induced death
